# Laboratory results: patent US5422341A, “Motilin-like polypeptides with gastrointestinal motor stimulating activity” (Ohmeda Pharmaceutical Products Division Inc., priority 1993, dated 1995)
# Structures can show the parent of a compound that is named as a salt. Square brackets hold non-standard residues; d marks the D form. Peptide text beside a SMILES is read from it. * marks the point of attachment. X5 = C=CC[N+](C)(C)[C@@H](Cc1ccccc1)C(=O)*; X1 = C[N+](C)(C)[C@@H](Cc1ccccc1)C(=O)*; X4 = CCN(CC)[C@@H](Cc1ccccc1)C(=O)*; NMeF = CN[C@@H](Cc1ccccc1)C(=O)O; Cha = N[C@@H](CC1CCCCC1)C(=O)O
# Columns and labels:
# motilin receptor = target: T1, motilin receptor (Oryctolagus cuniculus, UniProt G1T803); test: Determination of motilin receptor binding affinity (displacement of [125I-Tyr7, Nle13]motilin(porcine)); parameters: species or system rabbit; conditions: negative logarithm of the concentration displacing 50% of [125I-Tyr7, Nle13]motilin(porcine) from rabbit antral smooth muscle membranes; read-out: pIC50 (converted)
# T1 construct: from tissue; host or cells: rabbit antral smooth muscle membranes
# Procedure: The motilin receptor binding affinity of the peptides of this invention was determined by using the general procedure of Bormans, Peelers and Vantrappen, Regul. […] Fitting was performed using the iterative least-squares procedure of the SAS-software package (SAS Institute, Inc., Cary, N.C., USA).
# [1] = target: segments of rabbit duodenum (Oryctolagus cuniculus, UniProt G1T803); test: Rabbit duodenal smooth muscle strip tissue bath assay; assay type: cell-based; conditions: negative logarithm of the dose giving 50% of the maximal response to motilin; isotonic contraction of rabbit duodenum segments
# Procedure: The contractile response of segments of rabbit duodenum was determined isotonically in the tissue bath according to the procedure of Depoortere et at., J. Gastrointestinal Motility, 1, 150-159 (1989). The experimental protocol consisted of an equilibration period of 1 hour; a challenge with 10^-4 M acetylcholine followed by a wash-out period; a cumulative dose-response curve of a compound with, at the end, the addition of 10^-7 M motilin; and finally 10^-4 M acetylcholine. If the final response to 10^-4 M acetylcholine differed by more than 5% from the initial response, the results were discarded. The compounds were tested in the concentration range 10^-11 to 10^-4 M. The point corresponding to 50% of the maximal response to motilin (Emax) was determined by fitting the equation E=Emax (1+EC50 /[L]) through the data points. […] The dose giving 50% of the response is expressed using its negative logarithm (pEC50).
# T1 sequence (G1T803 1-400): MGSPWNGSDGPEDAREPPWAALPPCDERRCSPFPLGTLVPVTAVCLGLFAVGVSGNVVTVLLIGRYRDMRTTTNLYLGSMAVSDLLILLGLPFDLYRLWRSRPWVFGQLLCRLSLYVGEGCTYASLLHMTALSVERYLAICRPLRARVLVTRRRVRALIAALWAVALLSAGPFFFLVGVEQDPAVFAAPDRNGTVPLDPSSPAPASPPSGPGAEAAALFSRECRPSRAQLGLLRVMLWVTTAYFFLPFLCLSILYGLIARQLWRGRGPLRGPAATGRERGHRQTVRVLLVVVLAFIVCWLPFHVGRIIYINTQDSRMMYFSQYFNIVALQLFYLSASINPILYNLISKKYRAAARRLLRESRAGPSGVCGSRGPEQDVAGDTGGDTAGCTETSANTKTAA
# segments of rabbit duodenum, sequence (G1T803 1-400): as above
SMILES,IC50 (motilin receptor) [nM],pEC50 [1]
"CC[C@H](C)[C@H](NC(=O)[C@@H]1CCCN1C(=O)[C@@H](NC(=O)[C@@H](N)Cc1ccccc1)C(C)C)C(=O)N[C@@H](Cc1ccccc1)C(=O)N[C@H](C(=O)N[C@@H](Cc1ccc(O)cc1)C(=O)NCC(=O)N[C@@H](CCC(=O)O)C(=O)N[C@@H](CC(C)C)C(=O)N[C@@H](CCC(N)=O)C(=O)N[C@H](CCC(N)=O)C(=O)N[C@@H](CC(C)C)C(=O)N[C@@H](CCC(N)=O)C(=O)O)[C@@H](C)O [[D-Gln^12, Leu^13]pMOT(1-14)] (H-FVPIFTYGELQ[dQ]LQ-OH)",5.62,7.06
CC[C@H](C)[C@H](NC(=O)[C@@H]1CCCN1C(=O)[C@@H](NC(=O)[C@@H](N)Cc1ccccc1)C(C)C)C(=O)N[C@@H](CC1CCCCC1)C(=O)N[C@H](C(=O)N[C@@H](Cc1ccc(O)cc1)C(=O)NCC(=O)N[C@@H](CCC(=O)O)C(=O)N[C@@H](CC(C)C)C(=O)N[C@@H](CCC(N)=O)C(=O)N[C@H](CCCNC(=N)N)C(=O)N[C@@H](CC(C)C)C(=O)N[C@@H](CCC(N)=O)C(N)=O)[C@@H](C)O [H-Phe-Val-Pro-Ile-Cha-Thr-Tyr-Gly-Glu-Leu-Gln-D-Arg-Leu-Gln-NH2] (H-FVPI[Cha]TYGELQ[dR]LQ-NH2),6.76,7.30
"CC[C@H](C)[C@H](NC(=O)[C@@H]1CCCN1C(=O)[C@@H](NC(=O)[C@H](Cc1ccccc1)N(CC)CC)C(C)C)C(=O)N[C@@H](Cc1ccccc1)C(=O)N[C@H](C(=O)N[C@@H](Cc1ccc(O)cc1)C(=O)NCC(=O)N[C@@H](CCC(=O)O)C(=O)N[C@@H](CC(C)C)C(=O)N[C@@H](CCC(N)=O)C(=O)N[C@@H](CCCNC(=N)N)C(=O)N[C@@H](CC(C)C)C(=O)N[C@@H](CCC(N)=O)C(N)=O)[C@@H](C)O [[Et2 Phe^1, Leu^13]pMOT(1-14) amide] (X4-VPIFTYGELQRLQ-NH2)",3.89,7.54
"CC[C@H](C)[C@H](NC(=O)[C@@H]1CCCN1C(=O)[C@@H](NC(=O)[C@@H](N)Cc1ccccc1)C(C)C)C(=O)N[C@@H](Cc1ccccc1)C(=O)N[C@H](C(=O)N[C@@H](Cc1ccc(O)cc1)C(=O)NCC(=O)N[C@@H](CCC(=O)O)C(=O)N[C@@H](CC(C)C)C(=O)N[C@@H](C)C(=O)N[C@H](CCCNC(=N)N)C(=O)N[C@@H](CC(C)C)C(=O)N[C@@H](CCC(N)=O)C(=O)O)[C@@H](C)O [[Ala^11, D-Arg^12, Leu^13]pMOT(1-14)] (H-FVPIFTYGELA[dR]LQ-OH)",1.66,7.63
CC[C@H](C)[C@H](NC(=O)[C@@H]1CCCN1C(=O)[C@@H](NC(=O)[C@H](Cc1ccccc1)NC)C(C)C)C(=O)N[C@@H](Cc1ccccc1)C(=O)N[C@H](C(=O)N[C@@H](Cc1ccc(O)cc1)C(=O)NCC(=O)N[C@@H](CCC(=O)O)C(=O)N[C@@H](CC(C)C)C(=O)N[C@@H](CCC(N)=O)C(=O)N[C@@H](CCCNC(=N)N)C(=O)N[C@@H](CC(C)C)C(=O)N[C@H](CCC(N)=O)C(N)=O)[C@@H](C)O (H-[NMeF]VPIFTYGELQRL[dQ]-NH2),0.617,

# Other lines, results leading:
IC50 (motilin receptor) [nM],pEC50 [1],SMILES
3.55,7.69,"CC[C@H](C)[C@H](NC(=O)[C@@H]1CCCN1C(=O)[C@@H](NC(=O)[C@H](Cc1ccccc1)[N+](C)(C)C)C(C)C)C(=O)N[C@@H](Cc1ccccc1)C(=O)N[C@H](C(=O)N[C@@H](Cc1ccc(O)cc1)C(=O)NCC(=O)N[C@@H](CCC(=O)O)C(=O)N[C@@H](CC(C)C)C(=O)N[C@@H](CCC(N)=O)C(=O)N[C@@H](CCCNC(=N)N)C(=O)N[C@@H](CC(C)C)C(=O)N[C@@H](CCC(N)=O)C(=O)O)[C@@H](C)O [[Me3 N^+ Phe^1, Leu^13]pMOT(1-14), [1-N,N,N-Trimethylphenylalanine, 13-leucine]motilin-(1-14)-peptide (Porcine) Bis-trifluoroacetate Salt] (X1-VPIFTYGELQRLQ-OH)"
2.69,7.48,CC[C@H](C)[C@H](NC(=O)[C@@H]1CCCN1C(=O)[C@@H](NC(=O)[C@H](Cc1ccccc1)[N+](C)(C)C)C(C)C)C(=O)N[C@@H](Cc1ccccc1)C(=O)N[C@H](C(=O)N[C@@H](Cc1ccc(O)cc1)C(=O)NCC(=O)N[C@@H](CCC(=O)O)C(=O)N[C@@H](CC(C)C)C(=O)N[C@@H](CCC(N)=O)C(=O)N[C@@H](CCCNC(=N)N)C(=O)N[C@@H](CC(C)C)C(=O)N[C@@H](CCC(N)=O)C(N)=O)[C@@H](C)O (X1-VPIFTYGELQRLQ-NH2)
1.74,7.47,C=CC[N+](C)(C)[C@@H](Cc1ccccc1)C(=O)N[C@H](C(=O)N1CCC[C@H]1C(=O)N[C@H](C(=O)N[C@@H](Cc1ccccc1)C(=O)N[C@H](C(=O)N[C@@H](Cc1ccc(O)cc1)C(=O)NCC(=O)N[C@@H](CCC(=O)O)C(=O)N[C@@H](CC(C)C)C(=O)N[C@@H](CCC(N)=O)C(=O)N[C@@H](CCCNC(=N)N)C(=O)N[C@@H](CC(C)C)C(=O)N[C@@H](CCC(N)=O)C(N)=O)[C@@H](C)O)[C@@H](C)CC)C(C)C (X5-VPIFTYGELQRLQ-NH2)
,7.32,"CC[C@H](C)[C@H](NC(=O)[C@H](C)NC(=O)[C@@H](NC(=O)[C@H](Cc1ccccc1)[N+](C)(C)C)C(C)C)C(=O)N[C@@H](Cc1ccccc1)C(=O)N[C@H](C(=O)N[C@@H](Cc1ccc(O)cc1)C(=O)NCC(=O)N[C@@H](CCC(=O)O)C(=O)N[C@@H](CC(C)C)C(=O)N[C@@H](CCC(N)=O)C(=O)N[C@H](CCCNC(=N)N)C(=O)N[C@@H](CC(C)C)C(=O)N[C@@H](CCC(N)=O)C(N)=O)[C@@H](C)O [[Me3 N^+ Phe^1, Ala^3, D-Arg^13, Leu^13 ]pMOT(1-14) amide] (X1-VAIFTYGELQ[dR]LQ-NH2)"
1.62,,CC[C@H](C)[C@H](NC(=O)[C@H](C)NC(=O)[C@@H](NC(=O)[C@H](Cc1ccccc1)[N+](C)(C)C)C(C)C)C(=O)N[C@@H](Cc1ccccc1)C(=O)N[C@H](C(=O)N[C@@H](Cc1ccc(O)cc1)C(=O)NCC(=O)N[C@@H](CCC(=O)O)C(=O)N[C@@H](CC(C)C)C(=O)N[C@@H](CCC(N)=O)C(=O)N[C@H](CCCNC(=N)N)C(=O)N[C@@H](CC(C)C)C(=O)N[C@@H](CCC(N)=O)C(N)=O)[C@@H](C)O (X1-VAIFTYGELQ[dR]LQ-NH2) [listing 1 of 2 here]
2.63,,CC[C@H](C)[C@H](NC(=O)[C@H](C)NC(=O)[C@@H](NC(=O)[C@H](Cc1ccccc1)[N+](C)(C)C)C(C)C)C(=O)N[C@@H](Cc1ccccc1)C(=O)N[C@H](C(=O)N[C@@H](Cc1ccc(O)cc1)C(=O)NCC(=O)N[C@@H](CCC(=O)O)C(=O)N[C@@H](CC(C)C)C(=O)N[C@@H](CCC(N)=O)C(=O)N[C@H](CCCNC(=N)N)C(=O)N[C@@H](CC(C)C)C(=O)N[C@@H](CCC(N)=O)C(N)=O)[C@@H](C)O (X1-VAIFTYGELQ[dR]LQ-NH2) [listing 2 of 2 here]
,7.57,"CC[C@H](C)[C@H](NC(=O)[C@H](C)NC(=O)[C@@H](NC(=O)[C@H](Cc1ccccc1)[N+](C)(C)C)C(C)C)C(=O)N[C@@H](Cc1ccccc1)C(=O)N[C@H](C(=O)N[C@@H](Cc1ccc(O)cc1)C(=O)NCC(=O)N[C@@H](CCC(=O)O)C(=O)N[C@@H](CC(C)C)C(=O)N[C@@H](CCC(N)=O)C(=O)N[C@H](CCCNC(=N)N)C(=O)N[C@@H](CC(C)C)C(=O)N[C@@H](CCC(N)=O)C(N)=O)[C@@H](C)O [[Me3 N^+ Phe^1, Ala^3, D-Arg^12, Leu^13 pMOT(1-14) amide] (X1-VAIFTYGELQ[dR]LQ-NH2)"
